According to US4167580A, “Compositions and method of use to treat arthritic disease with m-fluorobenzimidoylacetonitrile” (American Cyanamid Company, priority 1978, dated 1979):

How the values were obtained:
[1] = system: Adjuvant Arthritis in Rats; assay: Adjuvant induced arthritis in rats (chronic inflammation with joint destruction); format: in vivo, Royal Hart, Wistar strain rats; settings: for % Inhibition of Swelling (primary lesion), Day 14 / % Inhibition of Swelling (primary lesion), Day 21 / Dead/Treated At 21 Days / Mean Weight Gain, Day 14 / Mean Weight Gain, Day 21 / % Inhibition of Control Grade (secondary lesion), Day 14 / % Inhibition of Control Grade (secondary lesion), Day 21: once daily days 0-13
Excerpt: Adjuvant induced experimental polyarthritis is a specific systemic disease of the rat which shares interesting similarities with rheumatoid arthritis. Specifically, the histology of the two diseases bears a remarkable resemblance as shown by C. M. Pearson et al., Am. J. Pathol. 42, 73 (1963). E. M. Glenn, Am. J. Vet. Res. 27 (116), 339 (1966) has classified adjuvant induced polyarthritis as a crippling and permanent deformity resulting from diffuse connective tissue involvement around certain susceptible joints in the rat. Zahiri et al., Can. Med. Ass. J. 101, 269 (1969) have shown that the fusiform swelling of the distal joints is associated with edema, congestion and synovitis including pannus formation, all of which precede the ultimate destruction of bone and cartilage. Furthermore, Zahiri et al. indicate that the cartilage destruction in the joint is due to an invasive pannus which originates in the marginal synovium and extends across the articular surface to erode it. […] See S. Wong et al., J. Pharm. & Exptl. Ther. 185, 127 (1973) and G. R. Bobalick et al., Agents & Actions 4, 364 (1974). In a similar manner, inhibition of the progress of arthritis in paws of rats treated with the compounds of this invention also lessens associated joint deterioration.
Groups of three Royal Hart, Wistar strain rats weighing 200±10 grams each were injected intradermally in the right hind paw with Freund's adjuvant (dried human tubercle bacilli in a mineral oil vehicle) at a dose of 2 mg./kg. of body weight. Test compounds were administered orally in a 1.5% staruh vehicle at various doses once daily on days 0 through 13 post challenge. Control rats were treated in a similar manner, but given only starch vehicle. On the 14th and 21st day post challenge the diameter of the injected paw (primary lesion) was measured by micrometer caliper. The volume of inflamed paws were estimated from these measurements and the results are expressed as percent inhibition of swelling as compared to controls. At the same time, the other inflamed sites, such as ears, paws and tail (secondary lesions) were observed and each rat was graded as to degree of inflammation and swelling present. The grading is based on a scale of 0 to 24, where 0 represents a complete absence of induced arthritic nodules and 24 represents the maximum degree of inflammation. The mean grade for each treated group is calculated and the effects of each compound are expressed as percent inhibition of the control grade. Table III records the results of these tests conducted with benzimidoylacetonitrile, m-fluorobenzimidoylacetonitrile and p-fluorobenzimidoylacetonitrile and known anti-inflammatory agents. The active compounds of the present invention suppress the progression of the arthritis and associated joint deterioration. Of particular interest is the low mortality observed with benzimidoylacetonitrile treated rats relative to either controls or rats treated with standard compounds.

[2] = system: Body Temperature of Pyretic Rats; assay: Body temperature in yeast induced pyrexia; format: in vivo, Royal Hart, Wistar strain rats; settings: 250 mg./kg. by gavage 17 hours after yeast; measured 19 hours post challenge
Protocol: The effect of benzimidoylacetonitrile on body temperature in yeast induced pyrexia was determined by the following procedure. Groups of three Royal Hart, Wistar strain rats weighing 80±5 grams were injected subcutaneously in the nape of the neck with 0.6 ml. of a 40% suspension of dried brewers yeast in distilled water. […] At 19 hours post challenge the rectal temperature of each rat was measured with an electric thermometer. Each dose response experiment was replicated one or more times.

[3] = system: Carrageenin Induced Edema of the Rat Paw; assay: Carrageenin induced edema of the rat paw (acute anti-inflammatory activity); format: in vivo, Royal Hart, Wistar strain rats; settings: 250 mg./kg. by gavage, 5 hours after drug (4 hours after carrageenin)
Protocol: In determining the acute anti-inflammatory activity of benzimidoylacetonitrile, Royal Hart, Wistar strain rats ranging in weight from 80 to 90 grams were used. The rats were fasted overnight prior to dosing but had free access to water. The compound was administered in aqueous suspension, by gavage, in a volume of 1.7 ml. per 50 grams of rat [corresponds by hydration volume used by Winter et al., Proc. Soc. […] The phlogistic agent used was carrageenin prepared as a sterile 1% suspension in 0.9% aqueous sodium chloride for routine testing. A volume of 0.05 ml. was injected through a 26 gauge needle into the planter tissue of the right hind paw. Measurements were made 5 hours after drug administration (4 hours after carrageenin challenge). Volumes of both the normal and carrageenin inflamed feet were determined. The difference between the two measurements is considered to be the increased edema due to the carrageenin administration.

Erythema in Guinea Pigs = assay: Ultraviolet induced erythema in guinea pigs, topical application; format: in vivo, Albino guinea pigs
Protocol: Albino guinea pigs were depilitated on their flanks, the evening before testing, with a standard mixture of barium sulfide and gum acacia. On the morning of the test at 0 hour they were restrained in a plastic container which allows exposure of 3 circular spots. They were then exposed to ultraviolet irradiation from a "Hanovia" Kromayer lamp, model 10, for 60 seconds. Immediately after exposure to ultraviolet light, the guinea pigs were treated by dissolving the test compound in ethyl alcohol at various concentrations and swabbing the UV exposed areas with the aid of a cottom tipped applicator stick. At one and four hours, the degree of erythema for each of the three sites was assessed according to the following scoring system: 0=no erythema, 0.5=incomplete circle or faint erythema and 1.0=complete circle of distinct erythema. Thus, the maximum score for each animal was 3.0.

[4] = 1% in ethyl alcohol, maximum score 3.0, ethyl alcohol control 2.5
[5] = 1% in ethyl alcohol, maximum score 3.0, ethyl alcohol control 3.0

Structure (SMILES): N#CCC(=N)c1cccc(F)c1 [m-Fluorobenzimidoylacetonitrile, m-fluorobenzimidoylacetonitrile]
- % Inhibition of Swelling (primary lesion), Day 14 ([1]; 50 mg./kg. oral): 40%
- % Inhibition of Swelling (primary lesion), Day 21 ([1]; 50 mg./kg. oral): 7%
- Dead/Treated At 21 Days ([1]; 50 mg./kg. oral): 1/18
- Mean Weight Gain, Day 14 ([1]; 50 mg./kg. oral): 64 grams
- Mean Weight Gain, Day 21 ([1]; 50 mg./kg. oral): 60 grams

Structure (SMILES): CCCCC1C(=O)N(c2ccccc2)N(c2ccccc2)C1=O [Phenylbutazone]
- Decrease In Body Temp. [2]: 1.5 °C
- C/T Edema Ratio (edema of control animals/edema of treated animals) [3]: 2.3
- Erythema Score (Avg.) 1 Hr. (Erythema in Guinea Pigs; [4]): 0.5
- Erythema Score (Avg.) 4 Hr. (Erythema in Guinea Pigs; [5]): 2.4
- % Inhibition of Control Grade (secondary lesion), Day 14 ([1]; 18.8 mg./kg. oral): 4%
- % Inhibition of Control Grade (secondary lesion), Day 21 ([1]; 18.8 mg./kg. oral): 8%
- % Inhibition of Swelling (primary lesion), Day 14 ([1]; 18.8 mg./kg. oral): 31%
- % Inhibition of Swelling (primary lesion), Day 21 ([1]; 18.8 mg./kg. oral): 7%
- Dead/Treated At 21 Days ([1]; 18.8 mg./kg. oral): 2/21
- Mean Weight Gain, Day 14 ([1]; 18.8 mg./kg. oral): 50 grams
- Mean Weight Gain, Day 21 ([1]; 18.8 mg./kg. oral): 45 grams
- % Inhibition of Control Grade (secondary lesion), Day 14 ([1]; 37.5 mg./kg. oral): 18%
- % Inhibition of Control Grade (secondary lesion), Day 21 ([1]; 37.5 mg./kg. oral): 13%
- % Inhibition of Swelling (primary lesion), Day 14 ([1]; 37.5 mg./kg. oral): 56%
- % Inhibition of Swelling (primary lesion), Day 21 ([1]; 37.5 mg./kg. oral): 14%
- Dead/Treated At 21 Days ([1]; 37.5 mg./kg. oral): 5/39
- Mean Weight Gain, Day 14 ([1]; 37.5 mg./kg. oral): 53 grams
- Mean Weight Gain, Day 21 ([1]; 37.5 mg./kg. oral): 53 grams
- % Inhibition of Control Grade (secondary lesion), Day 14 ([1]; 75 mg./kg. oral): 27%
- % Inhibition of Control Grade (secondary lesion), Day 21 ([1]; 75 mg./kg. oral): 15%
- % Inhibition of Swelling (primary lesion), Day 14 ([1]; 75 mg./kg. oral): 62%
- % Inhibition of Swelling (primary lesion), Day 21 ([1]; 75 mg./kg. oral): 28%
- Dead/Treated At 21 Days ([1]; 75 mg./kg. oral): 2/39
- Mean Weight Gain, Day 14 ([1]; 75 mg./kg. oral): 51 grams
- Mean Weight Gain, Day 21 ([1]; 75 mg./kg. oral): 50 grams
- % Inhibition of Control Grade (secondary lesion), Day 14 ([1]; 150 mg./kg. oral): 54%
- % Inhibition of Control Grade (secondary lesion), Day 21 ([1]; 150 mg./kg. oral): 31%
- % Inhibition of Swelling (primary lesion), Day 14 ([1]; 150 mg./kg. oral): 75%
- % Inhibition of Swelling (primary lesion), Day 21 ([1]; 150 mg./kg. oral): 44%
- Dead/Treated At 21 Days ([1]; 150 mg./kg. oral): 2/27
- Mean Weight Gain, Day 14 ([1]; 150 mg./kg. oral): 40 grams
- Mean Weight Gain, Day 21 ([1]; 150 mg./kg. oral): 50 grams

Structure (SMILES): N#CCC(=N)c1ccccc1 [Benzimidoylacetonitrile, benzimidoylacetonitrile]
- Decrease In Body Temp. [2]: 1.4 °C
- C/T Edema Ratio (edema of control animals/edema of treated animals) [3]: 2.2
- Erythema Score (Avg.) 1 Hr. (Erythema in Guinea Pigs; [4]): 1.0
- Erythema Score (Avg.) 4 Hr. (Erythema in Guinea Pigs; [5]): 2.8
- Erythema Score (Avg.) 1 Hr. (Erythema in Guinea Pigs; 2% in ethyl alcohol, maximum score 3.0, control 2.5): 0.6
- Erythema Score (Avg.) 4 Hr. (Erythema in Guinea Pigs; 2% in ethyl alcohol, maximum score 3.0, control 3.0): 2.7
- % Inhibition of Control Grade (secondary lesion), Day 14 ([1]; 25 mg./kg. oral): 33%
- % Inhibition of Control Grade (secondary lesion), Day 21 ([1]; 25 mg./kg. oral): 16%
- % Inhibition of Swelling (primary lesion), Day 14 ([1]; 25 mg./kg. oral): 33%
- % Inhibition of Swelling (primary lesion), Day 21 ([1]; 25 mg./kg. oral): 32%
- Dead/Treated At 21 Days ([1]; 25 mg./kg. oral): 1/9
- Mean Weight Gain, Day 14 ([1]; 25 mg./kg. oral): 41 grams
- Mean Weight Gain, Day 21 ([1]; 25 mg./kg. oral): 38 grams
- % Inhibition of Control Grade (secondary lesion), Day 14 ([1]; 50 mg./kg. oral): 59%
- % Inhibition of Control Grade (secondary lesion), Day 21 ([1]; 50 mg./kg. oral): 48%
- % Inhibition of Swelling (primary lesion), Day 14 ([1]; 50 mg./kg. oral): 63%
- % Inhibition of Swelling (primary lesion), Day 21 ([1]; 50 mg./kg. oral): 62%
- Dead/Treated At 21 Days ([1]; 50 mg./kg. oral): 1/24
- Mean Weight Gain, Day 14 ([1]; 50 mg./kg. oral): 31 grams
- Mean Weight Gain, Day 21 ([1]; 50 mg./kg. oral): 49 grams
- % Inhibition of Control Grade (secondary lesion), Day 14 ([1]; 100 mg./kg. oral): 57%
- % Inhibition of Control Grade (secondary lesion), Day 21 ([1]; 100 mg./kg. oral): 46%
- % Inhibition of Swelling (primary lesion), Day 14 ([1]; 100 mg./kg. oral): 68%
- % Inhibition of Swelling (primary lesion), Day 21 ([1]; 100 mg./kg. oral): 60%
- Dead/Treated At 21 Days ([1]; 100 mg./kg. oral): 0/15
- Mean Weight Gain, Day 14 ([1]; 100 mg./kg. oral): 46 grams
- Mean Weight Gain, Day 21 ([1]; 100 mg./kg. oral): 65 grams
- duration of action (in words) ([1]; greater suppression of primary and secondary lesions at the 21 day observation period): longer duration of action than standards
- mortality (in words) ([1]; relative to either controls or rats treated with standard compounds): low mortality
